Experimental data from US20070212366A1, “Use Of Mrp4-Inhibitors For The Treatment And/Or Prophylaxis Of Cardiovascular Diseases” (ERNST-MORITZ-ARNDT-UNIVERSITAT GREIFSWALD, priority 2003, published 2007).

How the values were obtained:
MRP4 [1] = molecular target: T1, MRP4 (Homo sapiens, UniProt O15439); assay: [3H]ADP transport in crude platelet membrane vesicles; format: biochemical; settings: ATP 0.4 mmol/l plus 1 mM orthovanadate versus ATP alone; crude membranes
T1 construct: Dense platelet vesicles (100 μg of protein) were incubated with [3H]ADP; from tissue; host or cells: platelets (crude membrane vesicles; dense granule fraction of a sucrose gradient)
T1 sequence (O15439 1-1325): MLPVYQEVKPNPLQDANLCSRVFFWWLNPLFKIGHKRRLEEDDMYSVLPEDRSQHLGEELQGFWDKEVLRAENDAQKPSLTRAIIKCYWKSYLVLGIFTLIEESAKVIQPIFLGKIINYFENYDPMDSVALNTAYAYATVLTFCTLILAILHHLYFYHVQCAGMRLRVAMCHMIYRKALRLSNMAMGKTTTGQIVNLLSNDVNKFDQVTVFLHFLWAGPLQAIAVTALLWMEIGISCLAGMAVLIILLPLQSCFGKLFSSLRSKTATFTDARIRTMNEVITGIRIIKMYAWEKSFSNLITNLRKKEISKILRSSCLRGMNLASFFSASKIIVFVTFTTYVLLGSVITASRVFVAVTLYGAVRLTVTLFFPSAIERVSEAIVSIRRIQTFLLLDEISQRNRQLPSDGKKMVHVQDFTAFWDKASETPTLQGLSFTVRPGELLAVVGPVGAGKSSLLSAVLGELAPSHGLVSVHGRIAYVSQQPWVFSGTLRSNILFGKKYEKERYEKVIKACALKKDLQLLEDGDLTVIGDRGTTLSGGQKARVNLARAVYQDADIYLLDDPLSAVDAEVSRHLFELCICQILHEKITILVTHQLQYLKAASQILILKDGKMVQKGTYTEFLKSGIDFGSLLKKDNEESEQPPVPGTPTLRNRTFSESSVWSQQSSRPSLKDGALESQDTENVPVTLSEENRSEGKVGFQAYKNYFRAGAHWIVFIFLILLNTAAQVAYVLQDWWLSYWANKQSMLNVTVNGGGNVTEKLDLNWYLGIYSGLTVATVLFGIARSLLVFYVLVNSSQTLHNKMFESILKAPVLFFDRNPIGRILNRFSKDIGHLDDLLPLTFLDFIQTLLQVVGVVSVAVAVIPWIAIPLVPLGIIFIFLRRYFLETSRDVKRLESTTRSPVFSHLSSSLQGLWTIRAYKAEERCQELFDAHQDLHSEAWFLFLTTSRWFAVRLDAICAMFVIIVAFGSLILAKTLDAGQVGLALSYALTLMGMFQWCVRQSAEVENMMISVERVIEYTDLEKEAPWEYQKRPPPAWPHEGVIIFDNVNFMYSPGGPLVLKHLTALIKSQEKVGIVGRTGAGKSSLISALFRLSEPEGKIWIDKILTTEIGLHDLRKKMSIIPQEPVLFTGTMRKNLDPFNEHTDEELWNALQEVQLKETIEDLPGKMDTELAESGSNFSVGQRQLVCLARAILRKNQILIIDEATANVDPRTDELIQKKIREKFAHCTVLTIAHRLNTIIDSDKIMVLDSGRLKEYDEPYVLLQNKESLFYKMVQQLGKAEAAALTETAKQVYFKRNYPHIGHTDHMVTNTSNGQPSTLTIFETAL
Protocol: In order to determine whether ADP can be a substrate for MRP4-mediated, ATP-dependent transport, the uptake of [3H]ADP (1 μM) in platelet membrane vesicles (crude membranes) in the presence of 0.4 mmol/l of ATP was measured over a period of 2 minutes. […] If ATP was replaced by 5′-AMP or the non-hydrolyzable ATP analog AMPPNP, which was customarily used in control incubations in order to calculate the ATP-dependent component of the transport, approximately a three to four-fold higher background binding of the [^3H]ADP to the membranes was observed, which increased only slightly with time (not shown). […] In order to show the ATP dependence and simultaneously to ensure identical initial ADP concentrations, the transport was measured in the presence of ATP with or without 1 mM orthovanadate, an inhibitor of ATP hydrolysis. A time-dependent increase in the vesicle-associated radioactivity in the presence of ATP was observed, in spite of the fact that [^3H]ADP was diluted by simultaneous formation of unlabeled ADP. […]
Transport of [^3H]ADP. An ATP-dependent transport of [3H]ADP (1 μmol/l) in the membrane vesicles was measured by rapid filtration, as is described for [^3H]cGMP, with the exception that the vesicles in incubation buffer supplemented with 0.4 mmol/l ATP, 10 mmol/l MgCl2 are incubated in the presence or absence of sodium orthovanadate (1 mmol/l). […]

MRP4 [2] = molecular target: T1, MRP4; assay: Inhibition of vanadate-sensitive [3H]ADP transport in dense platelet granules (vesicle rapid filtration); format: biochemical; settings: for [^3H]ADP transport (% of control): dense platelet vesicles, [3H]ADP 1 μmol/l, 0.4 mmol/l ATP ± 1 mmol/l orthovanadate, 2 min, mean ± SD of 3; for vanadate-sensitive ADP accumulation in the dense granular fraction of the sucrose gradient: result in words, refers to Table 1
From the text: In order to determine whether the observed difference in the [^3H]ADP uptake by the vesicles in the presence and absence of orthovanadate reflects a transmembrane movement rather than binding to the membrane surface, the influence of high osmolarity was investigated. […] In the presence of orthovanadate, 1 mol/l of sucrose only slightly influenced the [^3H]ADP association to the vesicles. […] Furthermore, the vanadate-sensitive ADP accumulation in the dense granular fraction of the sucrose gradient could be detected and was inhibited by dipyridamole, MK571 and cGMP (Table 1).
Transport of [^3H]ADP. An ATP-dependent transport of [3H]ADP (1 μmol/l) in the membrane vesicles was measured by rapid filtration, as is described for [^3H]cGMP, with the exception that the vesicles in incubation buffer supplemented with 0.4 mmol/l ATP, 10 mmol/l MgCl2 are incubated in the presence or absence of sodium orthovanadate (1 mmol/l). In order to investigate the effect of the osmolarity of the extra-vesicular medium, the vesicles were preincubated for 45 minutes at 4° C. in a 1 mol/l sucrose-containing buffer or in standard incubation buffer which contained 250 mmol/l of sucrose.
Dense platelet vesicles (100 μg of protein) were incubated with [3H]ADP (1 μmol/l) in the presence of 0.4 mmol/l of ATP or 0.4 mmol/l of ATP+1 mmol/l of orthovanadate for two minutes, and the difference in the vesicle-associated radioactivity was calculated. The compounds listed were added to the incubations with and without orthovanadate in the concentrations indicated. The difference is indicated as the percentage of the control (mean value+standard deviation of 3 determinations). The control value of the vanadate-sensitive [^3H]ADP transport in this experiment was […] of protein^−1 after 2 minutes.

Structure (SMILES): [Na+].[Na+].[Na+].[O]=[V]([O-])([O-])[O-] [orthovanadate, sodium orthovanadate]
- vesicle-associated radioactivity ([3H]ADP) (MRP4 [1]): significantly reduced

Structure (SMILES): Nc1nc2c(ncn2[C@@H]2O[C@@H]3COP(=O)(O)O[C@H]3[C@H]2O)c(=O)[nH]1 [cGMP, cyclic GMP]
- [^3H]ADP transport (% of control) (MRP4 [2]; 100 μM substance): 28.7 ± 2.3 % of control
- vanadate-sensitive ADP accumulation in the dense granular fraction of the sucrose gradient (MRP4 [2]): inhibited

Structure (SMILES): CN(C)C(=O)CCSC(SCCC(=O)O)c1cccc(/C=C/c2ccc3ccc(Cl)cc3n2)c1 (centres unmarked) [MK571]
- [^3H]ADP transport (% of control) (MRP4 [2]; 100 μM substance): 40.7 ± 3.9 % of control
- vanadate-sensitive ADP accumulation in the dense granular fraction of the sucrose gradient (MRP4 [2]): inhibited

Structure (SMILES): OCCN(CCO)c1nc(N2CCCCC2)c2nc(N(CCO)CCO)nc(N3CCCCC3)c2n1 [Dipyridamole, dipyridamole]
- [^3H]ADP transport (% of control) (MRP4 [2]; 10 μM substance): 52.7 ± 5.2 % of control
- [^3H]ADP transport (% of control) (MRP4 [2]; 100 μM substance): 8.8 ± 0.4 % of control
- vanadate-sensitive ADP accumulation in the dense granular fraction of the sucrose gradient (MRP4 [2]): inhibited
